Data as given in patent publication US20080187984A1, “Myo-inositol oxygenases” (Cargill, Incorporated, priority 2001, published 2008).

Molecular target: T1, ycbD product (aldehyde dehydrogenase) (Bacillus subtilis, UniProt P42236)
T1 construct: made in house; host or cells: E. coli BLR(DE3), [ycbD+ycbE]-pET30a, desalted cell extract
Assay: Dehydrogenase activity of cell extracts, absorbance at 340 nm
Assay type: biochemical
Conditions: 200 mM substrate, 0.05 mL cell extract (0.25 mg protein); for Relative Activity NAD: 1 mM NAD; for Relative Activity NADP: 1 mM NADP
Procedure: The dehydrogenase activity of the cell extracts was followed using acetaldehyde, glucuronic acid, and glucurono-3,6-lactone as substrates in 96-well plates. Each assay mixture contained 100 mM potassium phosphate, pH 7.8, 1 mM NADP or NAD, 200 mM substrate, and between 0.02 and 0.1 mL cell extract (0.1 to 0.5 mg protein). The reactions were started by adding the enzyme and were incubated at 30° C. in the spectrophotometer. The dehydrogenase activity was followed by monitoring the linear change in absorbance at 340 nm over a 10 minute time period (referenced to a reaction mixture without substrate).

T1 sequence (P42236 whole entry): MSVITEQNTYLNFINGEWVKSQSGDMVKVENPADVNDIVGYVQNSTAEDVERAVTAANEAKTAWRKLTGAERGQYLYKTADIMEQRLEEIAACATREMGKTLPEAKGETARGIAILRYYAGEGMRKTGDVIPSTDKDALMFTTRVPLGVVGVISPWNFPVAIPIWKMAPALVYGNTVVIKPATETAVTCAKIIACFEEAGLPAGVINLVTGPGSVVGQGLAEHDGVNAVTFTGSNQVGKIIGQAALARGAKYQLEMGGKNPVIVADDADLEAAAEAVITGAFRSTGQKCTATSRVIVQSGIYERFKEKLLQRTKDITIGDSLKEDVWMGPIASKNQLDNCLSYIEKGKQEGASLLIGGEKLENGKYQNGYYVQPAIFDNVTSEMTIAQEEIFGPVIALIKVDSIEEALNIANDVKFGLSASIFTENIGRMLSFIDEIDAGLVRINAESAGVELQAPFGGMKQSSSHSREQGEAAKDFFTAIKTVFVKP

| Structure (SMILES) | Relative Activity NAD | Relative Activity NADP |
| --- | --- | --- |
| O=C[C@H](O)[C@@H](O)[C@H](O)[C@H](O)C(=O)O [D-glucuronate] | 2.4 percentage of maximum activity | 2.1 percentage of maximum activity |
| O=C[C@H](O)[C@H]1OC(=O)[C@@H](O)[C@H]1O [D-glucurono-3,6-lactone] | 2.1 percentage of maximum activity | 50.6 percentage of maximum activity |
| CC=O [acetaldehyde] | 56.9 percentage of maximum activity | 100.0 percentage of maximum activity |
